The values below are quoted from earlier work in US20060068015A1, “Solid dosage form comprising a fibrate and a statin” (priority 2003, published 2006).

Structures are written as SMILES.

For series [1] the following is noted: for solubility in water: water / distilled water.

Turning to `CC(C)c1c(C(=O)Nc2ccccc2)c(-c2ccccc2)c(-c2ccc(F)cc2)n1CC[C@@H](O)C[C@@H](O)CC(=O)O` [Atorvastatin], the “systemic availability of HMG-COA reductase inhibitory activity” value (oral administration) is “approximately 30%”.

`CC[C@H](C)C(=O)O[C@H]1C[C@H](O)C=C2C=C[C@H](C)[C@H](CC[C@@H](O)C[C@@H](O)CC(=O)O)[C@H]21` [Pravastatin]: the solubility in water result in series [1] is on record as “water-soluble”. Where the note is “oral administration”, the bioavailability entry was “about 30%”.

Take `CC(C)n1c(/C=C/C(O)CC(O)CC(=O)O)c(-c2ccc(F)cc2)c2ccccc21` (stereo not shown) [fluvastatin]: the solubility in water result in series [1] is recorded as “water-soluble”.

Take `CC[C@H](C)C(=O)O[C@H]1C[C@@H](C)C=C2C=C[C@H](C)[C@H](CC[C@@H]3C[C@@H](O)CC(=O)O3)[C@H]21` [lovastatin]: the solubility in water result in series [1] is “poor water-solubility”.

As for `CC[C@H](C)C(=O)O[C@H]1C[C@H](O)C=C2C=C[C@H](C)[C@H](CC[C@@H](O)C[C@@H](O)CC(=O)[O-])[C@H]21.[Na+]` (relative stereo) [Pravastatin sodium, 1-naphthalene-heptanoic acid, 1,2,6,7,8,8a-hexahydro-(beta), (beta),6-trihydroxy-2-methyl-8-(2-methyl-1-oxobutoxy)-, monosodium salt, [1S-[1(alpha)((beta)S*,(beta)S*),2(alpha),6(alpha), 8(beta)(R*),8a(alpha)]]-], the solubility in acetone result in series [1] (acetone) was “practically insoluble”. Further, in series [1] (acetonitrile), the solubility in acetonitrile entry was “practically insoluble”. Further, in series [1] (chloroform), the solubility in chloroform entry was “practically insoluble”. In series [1] (ether), the solubility in ether entry is recorded as “practically insoluble”.

In the case of `CC(C)c1nc(N(C)S(C)(=O)=O)nc(-c2ccc(F)cc2)c1/C=C/[C@@H](O)C[C@@H](O)CC(=O)O` [Rosuvastatin], the solubility in water entry in series [1] is listed as “poor water-solubility”. The bioavailability result (oral administration) is “about 50%”.

Consider `O=C(O)C[C@H](O)C[C@H](O)/C=C/c1c(C2CC2)nc2ccccc2c1-c1ccc(F)cc1` [pitavastatin], for which the solubility in water result in series [1] was “poor water-solubility”.

Consider `CC(C)(Oc1ccc(C(=O)c2ccc(Cl)cc2)cc1)C(=O)O` [Fenofibric acid], for which the elimination half-life result (in vivo) is “about 20 hours”.
